Paper PMC4823954, “From fighting depression to conquering tumors: a novel tricyclic thiazepine compound as a tubulin polymerization inhibitor” (Cell Death & Disease, 2016)

Legend:
Experiment in all cases: KINOMEscan
Format in all cases: binding
Conditions in all cases: read-out: % Ctrl
PRKCI = molecular target: T1, PRKCI (Homo sapiens, UniProt P41743)
T1 construct: purchased DiscoveRx KINOMEscan
Procedure, shortened: (§1)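 Competition binding panel of 442 non-mutant kinases: test compound at 5 and 10 μM competed with an active-site-directed ligand for 1 h with shaking. Bound kinase was eluted with 0.5 μM ligand and quantified by qPCR; %Ctrl = (compound − positive control)/(DMSO − positive control) × 100, lower meaning tighter binding.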

[1] = molecular target: T2, ABL1(M351T)-phosphorylated (Homo sapiens, UniProt P00519, M351T)
T2 construct: purchased DiscoveRx KINOMEscan

FLT1 = molecular target: T3, FLT1 (Homo sapiens, UniProt P17948)
T3 construct: purchased DiscoveRx KINOMEscan
Procedure, shortened: as §1

DMPK2 = molecular target: T4, DMPK2 (Homo sapiens, UniProt Q6DT37)
T4 construct: purchased DiscoveRx KINOMEscan
Procedure, shortened: as §1

SRMS = molecular target: T5, SRMS (Homo sapiens, UniProt Q9H3Y6)
T5 construct: purchased DiscoveRx KINOMEscan
Procedure, shortened: as §1

TNK1 = molecular target: T6, TNK1 (Homo sapiens, UniProt Q13470)
T6 construct: purchased DiscoveRx KINOMEscan
Procedure, shortened: as §1

MST1R = molecular target: T7, MST1R (Homo sapiens, UniProt Q04912)
T7 construct: purchased DiscoveRx KINOMEscan
Procedure, shortened: as §1

EPHA2 = molecular target: T8, EPHA2 (Homo sapiens, UniProt P29317)
T8 construct: purchased DiscoveRx KINOMEscan
Procedure, shortened: as §1

FAK = molecular target: T9, FAK (Homo sapiens, UniProt Q05397)
T9 construct: purchased DiscoveRx KINOMEscan
Procedure, shortened: as §1

[2] = molecular target: T10, RSK4(Kin.Dom.1-N-terminal) (Homo sapiens, UniProt Q9UK32)
T10 construct: RSK4(Kin.Dom.1-N-terminal); purchased DiscoveRx KINOMEscan
Procedure, shortened: as §1

[3] = molecular target: T11, RSK1(Kin.Dom.2-C-terminal) (Homo sapiens, UniProt Q15418)
T11 construct: RSK1(Kin.Dom.2-C-terminal); purchased DiscoveRx KINOMEscan
Procedure, shortened: as §1

TIE2 = molecular target: T12, TIE2 (Homo sapiens, UniProt Q02763)
T12 construct: purchased DiscoveRx KINOMEscan
Procedure, shortened: as §1

GAK = molecular target: T13, GAK (Homo sapiens, UniProt O14976)
T13 construct: purchased DiscoveRx KINOMEscan
Procedure, shortened: as §1

CSNK1G3 = molecular target: T14, CSNK1G3 (Homo sapiens, UniProt Q9Y6M4)
T14 construct: purchased DiscoveRx KINOMEscan
Procedure, shortened: as §1

CDK3 = molecular target: T15, CDK3 (Homo sapiens, UniProt Q00526)
T15 construct: purchased DiscoveRx KINOMEscan
Procedure, shortened: as §1

SgK110 = molecular target: T16, SgK110 (Homo sapiens, UniProt P0C264)
T16 construct: purchased DiscoveRx KINOMEscan
Procedure, shortened: as §1

MUSK = molecular target: T17, MUSK (Homo sapiens, UniProt O15146)
T17 construct: purchased DiscoveRx KINOMEscan
Procedure, shortened: as §1

FLT3(R834Q) = molecular target: T18, FLT3(R834Q) (Homo sapiens, UniProt P36888, R834Q)
T18 construct: purchased DiscoveRx KINOMEscan

DAPK2 = molecular target: T19, DAPK2 (Homo sapiens, UniProt Q9UIK4)
T19 construct: purchased DiscoveRx KINOMEscan
Procedure, shortened: as §1

ASK1 = molecular target: T20, ASK1 (Homo sapiens, UniProt Q99683)
T20 construct: purchased DiscoveRx KINOMEscan
Procedure, shortened: as §1

[4] = molecular target: T21, RSK3(Kin.Dom.2-C-terminal) (Homo sapiens, UniProt Q15349)
T21 construct: RSK3(Kin.Dom.2-C-terminal); purchased DiscoveRx KINOMEscan
Procedure, shortened: as §1

EPHB6 = molecular target: T22, EPHB6 (Homo sapiens, UniProt O15197)
T22 construct: purchased DiscoveRx KINOMEscan
Procedure, shortened: as §1

TLK1 = molecular target: T23, TLK1 (Homo sapiens, UniProt Q9UKI8)
T23 construct: purchased DiscoveRx KINOMEscan
Procedure, shortened: as §1

ACVR2A = molecular target: T24, ACVR2A (Homo sapiens, UniProt P27037)
T24 construct: purchased DiscoveRx KINOMEscan
Procedure, shortened: as §1

ACVR1B = molecular target: T25, ACVR1B (Homo sapiens, UniProt P36896)
T25 construct: purchased DiscoveRx KINOMEscan
Procedure, shortened: as §1

ERK3 = molecular target: T26, ERK3 (Homo sapiens, UniProt Q16659)
T26 construct: purchased DiscoveRx KINOMEscan
Procedure, shortened: as §1

DRAK2 = molecular target: T27, DRAK2 (Homo sapiens, UniProt O94768)
T27 construct: purchased DiscoveRx KINOMEscan
Procedure, shortened: as §1

EPHA5 = molecular target: T28, EPHA5 (Homo sapiens, UniProt P54756)
T28 construct: purchased DiscoveRx KINOMEscan
Procedure, shortened: as §1

MST2 = molecular target: T29, MST2 (Homo sapiens, UniProt Q13188)
T29 construct: purchased DiscoveRx KINOMEscan
Procedure, shortened: as §1

T14 sequence (Q9Y6M4 whole entry): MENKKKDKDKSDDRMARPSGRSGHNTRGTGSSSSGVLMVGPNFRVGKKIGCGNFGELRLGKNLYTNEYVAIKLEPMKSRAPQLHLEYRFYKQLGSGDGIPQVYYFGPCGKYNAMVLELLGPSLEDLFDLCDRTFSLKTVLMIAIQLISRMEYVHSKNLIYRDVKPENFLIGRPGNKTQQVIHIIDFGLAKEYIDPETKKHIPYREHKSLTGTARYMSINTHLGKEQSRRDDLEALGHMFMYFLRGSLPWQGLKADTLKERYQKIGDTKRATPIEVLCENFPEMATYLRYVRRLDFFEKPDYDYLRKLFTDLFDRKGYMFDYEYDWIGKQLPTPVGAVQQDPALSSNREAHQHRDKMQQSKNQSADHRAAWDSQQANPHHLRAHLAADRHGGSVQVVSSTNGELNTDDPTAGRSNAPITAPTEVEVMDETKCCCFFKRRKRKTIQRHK
T10 sequence (Q9UK32 1-400 limits assumed): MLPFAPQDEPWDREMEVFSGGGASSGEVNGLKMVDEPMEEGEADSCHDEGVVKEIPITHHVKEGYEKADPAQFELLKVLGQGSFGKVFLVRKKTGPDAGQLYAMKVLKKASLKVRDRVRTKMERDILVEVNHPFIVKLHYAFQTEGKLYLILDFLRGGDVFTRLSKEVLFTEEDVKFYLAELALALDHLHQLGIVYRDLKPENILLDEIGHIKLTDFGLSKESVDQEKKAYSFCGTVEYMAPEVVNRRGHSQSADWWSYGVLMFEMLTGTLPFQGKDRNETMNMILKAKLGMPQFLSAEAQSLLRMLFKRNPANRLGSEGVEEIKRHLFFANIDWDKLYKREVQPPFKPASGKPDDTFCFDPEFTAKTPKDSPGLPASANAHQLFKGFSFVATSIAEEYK
T15 sequence (Q00526 whole entry): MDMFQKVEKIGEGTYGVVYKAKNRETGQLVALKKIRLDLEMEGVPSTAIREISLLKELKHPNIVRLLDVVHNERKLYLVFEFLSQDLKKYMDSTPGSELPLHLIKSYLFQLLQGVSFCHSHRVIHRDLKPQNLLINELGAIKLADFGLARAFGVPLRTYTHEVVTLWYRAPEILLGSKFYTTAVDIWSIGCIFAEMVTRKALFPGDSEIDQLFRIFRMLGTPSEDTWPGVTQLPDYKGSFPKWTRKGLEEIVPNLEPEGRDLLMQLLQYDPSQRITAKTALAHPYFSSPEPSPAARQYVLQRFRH
T21 sequence (Q15349 389-733 limits assumed): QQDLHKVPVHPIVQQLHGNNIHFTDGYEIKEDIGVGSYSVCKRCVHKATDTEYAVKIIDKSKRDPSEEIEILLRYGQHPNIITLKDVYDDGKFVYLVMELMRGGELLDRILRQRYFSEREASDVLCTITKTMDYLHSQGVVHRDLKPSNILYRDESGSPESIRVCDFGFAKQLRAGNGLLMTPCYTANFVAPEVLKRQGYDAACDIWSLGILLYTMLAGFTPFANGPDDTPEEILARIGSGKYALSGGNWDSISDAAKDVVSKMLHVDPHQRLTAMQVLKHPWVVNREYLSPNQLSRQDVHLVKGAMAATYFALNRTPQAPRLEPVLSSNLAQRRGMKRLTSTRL
T11 sequence (Q15418 392-735 limits assumed): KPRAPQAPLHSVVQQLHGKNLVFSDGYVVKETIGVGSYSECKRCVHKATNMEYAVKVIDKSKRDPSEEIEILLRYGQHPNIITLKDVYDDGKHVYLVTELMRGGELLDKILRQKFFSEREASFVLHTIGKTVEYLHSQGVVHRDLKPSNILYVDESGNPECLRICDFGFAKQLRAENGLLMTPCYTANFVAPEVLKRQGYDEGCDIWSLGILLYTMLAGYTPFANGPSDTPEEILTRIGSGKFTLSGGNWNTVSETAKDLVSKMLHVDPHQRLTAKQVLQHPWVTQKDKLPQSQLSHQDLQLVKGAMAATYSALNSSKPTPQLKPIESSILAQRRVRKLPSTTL
T23 sequence (Q9UKI8 whole entry): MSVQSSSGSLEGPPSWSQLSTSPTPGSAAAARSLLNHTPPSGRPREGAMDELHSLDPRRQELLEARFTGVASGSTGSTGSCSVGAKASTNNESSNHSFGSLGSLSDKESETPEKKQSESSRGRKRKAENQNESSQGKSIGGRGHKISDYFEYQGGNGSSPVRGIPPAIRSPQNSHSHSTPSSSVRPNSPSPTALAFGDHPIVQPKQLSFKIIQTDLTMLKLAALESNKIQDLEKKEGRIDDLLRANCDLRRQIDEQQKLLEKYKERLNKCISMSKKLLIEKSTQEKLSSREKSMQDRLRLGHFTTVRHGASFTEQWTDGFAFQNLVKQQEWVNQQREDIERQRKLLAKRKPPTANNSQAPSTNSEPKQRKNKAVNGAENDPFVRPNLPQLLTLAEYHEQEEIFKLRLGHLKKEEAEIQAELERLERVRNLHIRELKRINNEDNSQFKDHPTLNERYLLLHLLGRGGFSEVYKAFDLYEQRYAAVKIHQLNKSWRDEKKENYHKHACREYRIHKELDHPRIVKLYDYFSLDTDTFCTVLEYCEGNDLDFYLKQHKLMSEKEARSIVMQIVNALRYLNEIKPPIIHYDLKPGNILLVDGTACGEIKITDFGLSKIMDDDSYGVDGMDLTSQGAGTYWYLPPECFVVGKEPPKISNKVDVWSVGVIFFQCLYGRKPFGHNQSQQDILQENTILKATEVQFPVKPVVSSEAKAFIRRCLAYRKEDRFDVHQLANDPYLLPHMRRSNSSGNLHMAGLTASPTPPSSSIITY
T1 sequence (P41743 whole entry): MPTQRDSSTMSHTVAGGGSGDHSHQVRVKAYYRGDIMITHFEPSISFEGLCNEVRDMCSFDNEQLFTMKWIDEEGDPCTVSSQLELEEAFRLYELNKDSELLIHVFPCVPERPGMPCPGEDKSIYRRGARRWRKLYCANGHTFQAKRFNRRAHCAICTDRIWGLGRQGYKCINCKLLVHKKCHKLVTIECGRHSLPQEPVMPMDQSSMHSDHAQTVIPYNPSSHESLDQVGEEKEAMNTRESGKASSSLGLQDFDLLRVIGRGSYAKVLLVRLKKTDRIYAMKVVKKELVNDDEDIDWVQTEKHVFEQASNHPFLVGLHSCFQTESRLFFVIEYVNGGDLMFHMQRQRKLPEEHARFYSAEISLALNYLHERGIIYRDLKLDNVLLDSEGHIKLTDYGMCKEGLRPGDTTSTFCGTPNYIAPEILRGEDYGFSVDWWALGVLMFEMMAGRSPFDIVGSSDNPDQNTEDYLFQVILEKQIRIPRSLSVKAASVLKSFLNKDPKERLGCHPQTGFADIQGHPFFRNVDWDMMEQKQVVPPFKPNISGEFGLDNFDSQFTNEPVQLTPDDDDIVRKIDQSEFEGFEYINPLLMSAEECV
T3 sequence (P17948 27-1338): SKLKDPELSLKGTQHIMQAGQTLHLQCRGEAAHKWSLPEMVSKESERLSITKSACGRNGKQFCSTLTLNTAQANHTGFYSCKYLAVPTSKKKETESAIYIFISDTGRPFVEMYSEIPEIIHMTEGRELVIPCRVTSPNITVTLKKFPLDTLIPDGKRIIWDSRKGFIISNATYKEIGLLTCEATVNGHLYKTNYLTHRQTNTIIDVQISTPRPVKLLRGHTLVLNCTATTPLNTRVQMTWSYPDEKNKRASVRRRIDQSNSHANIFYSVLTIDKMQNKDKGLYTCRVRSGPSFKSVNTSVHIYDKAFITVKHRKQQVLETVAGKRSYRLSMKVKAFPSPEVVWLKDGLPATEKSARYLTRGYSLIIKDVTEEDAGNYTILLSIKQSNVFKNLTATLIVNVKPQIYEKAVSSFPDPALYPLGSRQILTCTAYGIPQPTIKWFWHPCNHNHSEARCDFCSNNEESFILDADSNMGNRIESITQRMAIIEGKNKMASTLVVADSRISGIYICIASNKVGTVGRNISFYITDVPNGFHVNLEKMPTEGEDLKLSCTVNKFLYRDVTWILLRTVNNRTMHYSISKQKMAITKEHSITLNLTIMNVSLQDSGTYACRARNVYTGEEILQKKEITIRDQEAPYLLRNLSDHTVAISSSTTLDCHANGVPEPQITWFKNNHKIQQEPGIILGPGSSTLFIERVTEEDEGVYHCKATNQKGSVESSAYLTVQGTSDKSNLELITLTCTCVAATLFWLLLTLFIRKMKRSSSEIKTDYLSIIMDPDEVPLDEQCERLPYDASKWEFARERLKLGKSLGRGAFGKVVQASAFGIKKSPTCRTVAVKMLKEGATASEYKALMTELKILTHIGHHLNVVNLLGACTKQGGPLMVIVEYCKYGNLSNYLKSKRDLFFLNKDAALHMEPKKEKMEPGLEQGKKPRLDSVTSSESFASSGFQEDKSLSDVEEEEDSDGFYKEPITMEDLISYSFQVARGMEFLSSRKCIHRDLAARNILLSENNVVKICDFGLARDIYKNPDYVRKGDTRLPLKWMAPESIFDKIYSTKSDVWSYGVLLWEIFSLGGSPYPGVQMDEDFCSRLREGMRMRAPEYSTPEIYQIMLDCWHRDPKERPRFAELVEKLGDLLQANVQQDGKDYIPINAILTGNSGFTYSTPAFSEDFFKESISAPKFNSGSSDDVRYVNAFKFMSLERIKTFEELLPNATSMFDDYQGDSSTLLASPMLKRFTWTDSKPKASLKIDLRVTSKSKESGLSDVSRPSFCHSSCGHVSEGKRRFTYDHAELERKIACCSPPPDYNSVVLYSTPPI
T19 sequence (Q9UIK4 whole entry): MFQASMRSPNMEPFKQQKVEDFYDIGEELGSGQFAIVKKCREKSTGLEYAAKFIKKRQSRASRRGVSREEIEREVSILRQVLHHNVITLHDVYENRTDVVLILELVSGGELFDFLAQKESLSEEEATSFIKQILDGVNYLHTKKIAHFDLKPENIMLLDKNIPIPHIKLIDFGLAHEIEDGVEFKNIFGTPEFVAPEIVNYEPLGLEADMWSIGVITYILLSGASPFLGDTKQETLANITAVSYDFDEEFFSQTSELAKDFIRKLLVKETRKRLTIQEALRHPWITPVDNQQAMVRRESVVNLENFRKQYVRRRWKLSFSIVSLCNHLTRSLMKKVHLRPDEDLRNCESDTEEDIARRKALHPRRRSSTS

Cc1ccc(C2=Nc3cccnc3S(=O)(=O)c3ccccc32)cc1 [TBPT, 6-(p-tolyl)benzo[f] pyrido[2,3-b][1,4] thiazepine 11,11-dioxide]
remaining binding at 5 µM (PRKCI; 5 μM): 95% | remaining binding at 10 µM (PRKCI; 10 μM): 91% | remaining binding at 5 µM ([1]; 5 μM): 81% | remaining binding at 10 µM ([1]; 10 μM): 100% | remaining binding at 5 µM (FLT1; 5 μM): 100% | remaining binding at 10 µM (FLT1; 10 μM): 98% | remaining binding at 5 µM (DMPK2; 5 μM): 100% | remaining binding at 10 µM (DMPK2; 10 μM): 83% | remaining binding at 5 µM (SRMS; 5 μM): 87% | remaining binding at 10 µM (SRMS; 10 μM): 97% | remaining binding at 5 µM (TNK1; 5 μM): 100% | remaining binding at 10 µM (TNK1; 10 μM): 97% | remaining binding at 5 µM (MST1R; 5 μM): 80% | remaining binding at 10 µM (MST1R; 10 μM): 100% | remaining binding at 5 µM (EPHA2; 5 μM): 87% | remaining binding at 10 µM (EPHA2; 10 μM): 95% | remaining binding at 5 µM (FAK; 5 μM): 92% | remaining binding at 10 µM (FAK; 10 μM): 92% | remaining binding at 5 µM ([2]; 5 μM): 83% | remaining binding at 10 µM ([2]; 10 μM): 94% | remaining binding at 5 µM ([3]; 5 μM): 100% | remaining binding at 10 µM ([3]; 10 μM): 98% | remaining binding at 5 µM (TIE2; 5 μM): 100% | remaining binding at 10 µM (TIE2; 10 μM): 91% | remaining binding at 5 µM (GAK; 5 μM): 100% | remaining binding at 10 µM (GAK; 10 μM): 90% | remaining binding at 5 µM (CSNK1G3; 5 μM): 100% | remaining binding at 10 µM (CSNK1G3; 10 μM): 98% | remaining binding at 5 µM (CDK3; 5 μM): 100% | remaining binding at 10 µM (CDK3; 10 μM): 100% | remaining binding at 5 µM (SgK110; 5 μM): 100% | remaining binding at 10 µM (SgK110; 10 μM): 100% | remaining binding at 5 µM (MUSK; 5 μM): 100% | remaining binding at 10 µM (MUSK; 10 μM): 100% | remaining binding at 5 µM (FLT3(R834Q); 5 μM): 89% | remaining binding at 10 µM (FLT3(R834Q); 10 μM): 100% | remaining binding at 5 µM (DAPK2; 5 μM): 100% | remaining binding at 10 µM (DAPK2; 10 μM): 99% | remaining binding at 5 µM (ASK1; 5 μM): 100% | remaining binding at 10 µM (ASK1; 10 μM): 100% | remaining binding at 5 µM ([4]; 5 μM): 100% | remaining binding at 10 µM ([4]; 10 μM): 100% | remaining binding at 5 µM (EPHB6; 5 μM): 99% | remaining binding at 10 µM (EPHB6; 10 μM): 100% | remaining binding at 5 µM (TLK1; 5 μM): 93% | remaining binding at 10 µM (TLK1; 10 μM): 97% | remaining binding at 5 µM (ACVR2A; 5 μM): 100% | remaining binding at 10 µM (ACVR2A; 10 μM): 93% | remaining binding at 5 µM (ACVR1B; 5 μM): 98% | remaining binding at 10 µM (ACVR1B; 10 μM): 91% | remaining binding at 5 µM (ERK3; 5 μM): 100% | remaining binding at 10 µM (ERK3; 10 μM): 100% | remaining binding at 5 µM (DRAK2; 5 μM): 100% | remaining binding at 10 µM (DRAK2; 10 μM): 91% | remaining binding at 5 µM (EPHA5; 5 μM): 92% | remaining binding at 10 µM (EPHA5; 10 μM): 100% | remaining binding at 5 µM (MST2; 5 μM): 63% | remaining binding at 10 µM (MST2; 10 μM): 100%
